According to patent US12691095B2, “Modulators of TNF-alpha activity” (Forward Therapeutics, Inc., priority 2024, dated 2026):

target: T1, TNF-α (Homo sapiens, UniProt P01375); assay: TNF-α Induced HEK Blue Cellular Assay; type: cell-based; details: HEK Blue TNFα reporter cells stimulated with TNF-α, 24 hrs, secreted alkaline phosphatase (QUANTI-Blue, 620 nm)
T1 construct: purchased R&D 210-TA-020/CF
Protocol: (§1) Test articles were diluted in DMSO and serially diluted into 384 well assay plate (Corning 3765), at final concentrations ranging from […] to 0.5 nM. HEK Blue™ TNFα reporter cells were added at a final density of 10,000 cell per well in assay media [DMEM (Gibco, cat #21063-029), 10% fetal bovine serum (ExcelBio, cat #FND500), 1% Penicillin-Streptomycin (Solarbio, cat #P1400-100]. TNF-α (R&D 210-TA-020/CF) was then added to the assay plate at a final concentration of […]. This plate was then incubated for 24 hrs at 37° C. and 5% CO2. Secreted alkaline phosphatase expression was then measured using QUANTI- Blue™ (Invivogen), according to manufacturer instructions and read on an Envision microplate reader at 620 nm.
Inhibition data for test compound over a range of concentration was plotted as percentage inhibition of the test compound (100%=maximum inhibition). IC50 values were determined after correcting for background [(sample read-mean of low control)/(mean of high control-mean of low control)] where by the low control is DMSO without stimulation and high control is DMSO with stimulation. The IC50 is defined as the concentration of test compound which produces 50% inhibition and was quantified using the 4 parameter logistic equation to fit the data.

T1 sequence (P01375 77-233 limits assumed): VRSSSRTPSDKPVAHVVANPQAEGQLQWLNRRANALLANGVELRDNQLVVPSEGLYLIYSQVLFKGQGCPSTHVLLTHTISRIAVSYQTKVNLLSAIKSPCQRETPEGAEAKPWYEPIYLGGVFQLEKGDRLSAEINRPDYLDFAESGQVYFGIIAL

IC50, ≤ 100 nM:
[2H]C([2H])([2H])N1C(=O)c2cccc(Cl)c2[C@H]2C[C@@H]1c1nc3ccc(-c4ccc(P(C)(C)=O)cc4)cc3n12 [Example 7, (7R,14R)-1-chloro-11-(4-(dimethylphosphoryl)phenyl)-6-(methyl-d3)-6,7-dihydro-7,14-methanobenzo[f]benzo[4,5]imidazo[1,2-a][1,4]diazocin-5(14H)-one]
[2H]C([2H])([2H])N1C(=O)c2cccc(Cl)c2[C@H]2C[C@@H]1c1nc3ccc(-c4ccc(P(C)(C)=O)cc4F)cc3n12 [Example 8, (7R,14R)-1-chloro-11-(4-(dimethylphosphoryl)-2-fluorophenyl)-6-(methyl-d3)-6,7-dihydro-7,14-methanobenzo[f]benzo[4,5]imidazo[1,2-a][1,4]diazocin-5(14H)-one]
[2H]C([2H])([2H])N1C(=O)c2cccc(F)c2[C@H]2C[C@@H]1c1nc3ccc(-c4ccc(P(C)(C)=O)c(F)c4)cc3n12 [Example 9, (7R,14R)-11-(4-(dimethylphosphoryl)-3-fluorophenyl)-1-fluoro-6-(methyl-d3)-6,7-dihydro-7,14-methanobenzo[f]benzo[4,5]imidazo[1,2-a][1,4]diazocin-5(14H)-one]
[2H]C([2H])([2H])C([2H])([2H])N1C(=O)c2cccc(Cl)c2[C@H]2C[C@@H]1c1nc3ccc(-c4ccc(P(C)(C)=O)c(F)c4)cc3n12 [Example 10, (7R,14R)-1-chloro-11-(4-(dimethylphosphoryl)-3-fluorophenyl)-6-(ethyl-d5)-6,7-dihydro-7,14-methanobenzo[f]benzo[4,5]imidazo[1,2-a][1,4]diazocin-5(14H)-one]
CCN1C(=O)c2cccc(Cl)c2[C@H]2C[C@@H]1c1nc3ccc(-c4ccc(P(C)(C)=O)c(F)c4)cc3n12 [Example 11, (7R,14R)-1-chloro-11-(4-(dimethylphosphoryl)-3-fluorophenyl)-6-ethyl-6,7-dihydro-7,14-methanobenzo[f]benzo[4,5]imidazo[1,2-a][1,4]diazocin-5(14H)-one]
[2H]C([2H])([2H])N1C(=O)c2cccc(F)c2[C@H]2C[C@@H]1c1nc3ccc(-c4cc(F)c(P(C)(C)=O)cc4F)cc3n12 [Example 12, (7R,14R)-11-(4-(dimethylphosphoryl)-2,5-difluorophenyl)-1-fluoro-6-(methyl-d3)-6,7-dihydro-7,14-methanobenzo[f]benzo[4,5]imidazo[1,2-a][1,4]diazocin-5(14H)-one]

target: T1, TNF-α; assay: TNF-α Induced THP 1 dual Cellular Assay; type: cell-based; details: THP1 dual cell reporter cells stimulated with TNF-α, 24 hrs, secreted alkaline phosphatase (QUANTI-Blue, 620 nm)
Protocol: as §1, with “THP1 dual cell” for “HEK Blue™ TNFα”, “QUANTI-Blue™” for “QUANTI- Blue™”
Inhibition data for test compound over a range of concentration was plotted as percentage inhibition of the test compound (100%=maximum inhibition). IC50 values were determined after correcting for background [(sample read-mean of low control)/(mean of high control-mean of low control)] whereby the low control is DMSO without stimulation and high control is DMSO with stimulation. The IC50 is defined as the concentration of test compound which produces 50% inhibition and was quantified using the 4-parameter logistic equation to fit the data.

IC50, ≤ 100 nM:
[2H]C([2H])([2H])N1C(=O)c2cccc(F)c2[C@H]2C[C@@H]1c1nc3ccc(-c4cc(F)c(P(C)(C)=O)cc4F)cc3n12 [Example 12, (7R,14R)-11-(4-(dimethylphosphoryl)-2,5-difluorophenyl)-1-fluoro-6-(methyl-d3)-6,7-dihydro-7,14-methanobenzo[f]benzo[4,5]imidazo[1,2-a][1,4]diazocin-5(14H)-one]
